# Key:
# [1] = test system: doxorubicin induced cardiomyopathy; assay: doxorubicin induced cardiomyopathy in mice, one cycle (Set A), echocardiography; assay type: in vivo, male C57bl6J mice
# Experimental: FIG. 1 illustrates schematically the design of a study in which male C57bl6J mice received 15 mpk cumulative dose of doxorubicin in 7 doses of 2.15 mpk administered daily over study days 1-7. A 15-PGDH inhibitor, (+) SW033291, was administered by oral gavage at a dose of 25 mpk twice daily over study days 1-14, as a solution in a vehicle of 10% ethanol and 90% soybean oil. Cardiac ejection fraction was determined by echocardiography on study days 14 and 28.
# FIG. 2 illustrates a graph showing cardiac ejection fraction at study day 1, at the start of the experiment, at study day 14 and at study day 28. Black bars show measurement in control mice receiving either oral saline or oral vehicle. Blue bars show results in doxorubicin treated mice receiving oral vehicle. Red bars show results in doxorubicin treated mice also receiving (+) SW033291. Doxorubicin treated mice receiving oral vehicle (blue bars) show a 10% decrease in ejection fraction on day 14 and day 28 as compared to non-doxorubicin treated control mice receiving vehicle only for 14 days. In contrast, mice treated with both doxorubicin and (+) SW033291 only a 2% (day 14) or 1.5% (day 28) decrease in ejection fraction. The difference in ejection fraction in doxorubicin treated mice receiving or not receiving (+) SW033291 was statiscally significant (P<0.05) on both days 14 and 28.
# [2] = target: T1, cardiac 15-PGDH (Mus musculus, UniProt Q8VCC1); assay: cardiac 15-PGDH activity and cardiac PGE2 after oral dosing of mice; assay type: in vivo
# T1 construct: from tissue; host or cells: mouse heart (male C57bl6J mice are named for the study design)
# T1 sequence (Q8VCC1 1-269): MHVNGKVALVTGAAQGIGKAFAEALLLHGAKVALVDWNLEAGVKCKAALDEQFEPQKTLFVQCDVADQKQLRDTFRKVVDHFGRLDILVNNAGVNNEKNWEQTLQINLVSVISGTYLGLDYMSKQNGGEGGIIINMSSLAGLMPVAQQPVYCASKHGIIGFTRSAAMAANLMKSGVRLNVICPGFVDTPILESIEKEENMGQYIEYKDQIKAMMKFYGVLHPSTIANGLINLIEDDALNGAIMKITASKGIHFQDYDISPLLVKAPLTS
# [3] = test system: doxorubicin induced cardiomyopathy; assay: doxorubicin induced cardiomyopathy in mice, 2 consecutive cycles of doxorubicin (Set B); assay type: in vivo
# [4] = test system: cardiac myocytes; assay: DNA damage in cardiac myocytes, gamma-H2AX immunostaining; assay type: in vivo; conditions: doxorubicin treated mice
# [5] = stability on incubation with hepatocyte cell lines; assay type: in vitro ADME
# [6] = stability on incubation with hepatocyte extracts; assay type: in vitro ADME
# [7] = test system: PGE2 production by cell lines; assay: PGE2 production by cell lines; assay type: cell-based
# [8] = chemical stability in aqueous solutions; assay type: physicochemical; conditions: over broad pH range
# [9] = test system: mice; assay: toxicity after IP injection into mice
# [10] = target: T2, recombinant 15-PGDH (Homo sapiens, UniProt P15428); assay: inhibition of recombinant 15-PGDH; assay type: biochemical
# T2 sequence (P15428 1-266): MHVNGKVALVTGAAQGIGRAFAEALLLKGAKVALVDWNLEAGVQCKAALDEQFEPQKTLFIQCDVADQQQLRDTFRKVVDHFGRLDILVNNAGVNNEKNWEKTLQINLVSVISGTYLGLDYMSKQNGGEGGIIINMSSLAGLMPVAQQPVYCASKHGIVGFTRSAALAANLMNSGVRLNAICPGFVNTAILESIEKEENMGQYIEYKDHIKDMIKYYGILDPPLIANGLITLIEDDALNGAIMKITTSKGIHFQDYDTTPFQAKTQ
# [11] = stability on incubation with mouse liver extracts; assay type: in vitro ADME
# [12] = stability on incubation with rat liver extracts; assay type: in vitro ADME
# [13] = stability on incubation with human liver extracts; assay type: in vitro ADME
# [14] = day 42, after two cycles of doxorubicin, versus vehicle control
smiles,measurement,setting,value
"CCCC[S+]([O-])c1sc2nc(-c3cccs3)cc(-c3ccccc3)c2c1N (single isomer, unassigned; (+)) [(+) SW033291]","ejection fraction (EF %), extended follow-up","[1]; Set A, follow-up to day 56",maintenance of improvement in ejection fraction
same,decrease in ejection fraction,"[1]; day 14, doxorubicin treated mice, 25 mpk oral gavage twice daily days 1-14",2%
same,decrease in ejection fraction,"[1]; day 28, doxorubicin treated mice, 25 mpk oral gavage twice daily days 1-14",1.5%
same,prevention of doxorubicin induced cardiomyopathy,[1]; mice,prevented doxorubicin induced cardiomyopathy
same,"cardiac contractility, echocardiogram","[1]; study day 14, doxorubicin treated mice, versus oral vehicle",markedly greater cardiac contractility
same,inhibition of activity of cardiac 15-PGDH,"[2]; 25 mpk oral, starting at 30 minutes, persisting for 3 hours after administration",approximately 80%
same,cardiac PGE2,[2]; 6 hours after drug treatment,increased cardiac PGE2
same,ejection fraction,"[3]; day 14, following the first cycle of doxorubicin",improvement of ejection fraction
same,"atrial natriuretic factor, real-time PCR in cardiac tissue",[3]; [14],lower levels of atrial natriuretic factor
same,"expression of connective tissue growth factor, real-time PCR in cardiac tissue",[3]; [14],lower levels of expression of connective tissue growth factor
same,lung weight,[3]; [14],lesser lung weight
same,ventricular weight,[3]; [14],lesser ventricular weight
same,total body weight,"[3]; day 42, after two cycles of doxorubicin, versus vehicle treated mice",greater total body weight
same,ejection fraction,"[3]; day 42, following the second cycle of doxorubicin",improvement of ejection fraction
"COc1cccc2c1C(=O)c1c(O)c3c(c(O)c1C2=O)C[C@@](O)(C(=O)CO)C[C@@H]3O[C@H]1C[C@H](N)[C@H](O)[C@H](C)O1 [doxorubicin, reference compound]",decrease in ejection fraction,"[1]; day 14, doxorubicin 15 mpk cumulative plus oral vehicle, compared to non-doxorubicin treated control mice",10%
same,decrease in ejection fraction,"[1]; day 28, doxorubicin 15 mpk cumulative plus oral vehicle, compared to non-doxorubicin treated control mice",10%
same,"DNA damage in cardiac myocytes, gamma-H2AX immunostaining",[4],induction of DNA damage
CCCC[S+]([O-])c1sc2nc(-c3cccs3)cc(-c3ccccc3)c2c1N (stereo not shown) [formula (IX)],chemical stability when incubated with hepatocyte cell lines,[5],chemically stable
same,chemical stability when incubated with hepatocyte extracts,[6],chemically stable
same,PGE2 production by cell lines,[7],increase PGE2 production
same,chemical stability in aqueous solutions,[8],chemically stable
same,toxicity,[9]; IP into mice at 0.3 μmole/per mouse twice daily for 21 days,no toxicity
same,immediate toxicity over 24 hours,[9]; IP into mice at 0.6 μmole/per mouse,no immediate toxicity
same,immediate toxicity over 24 hours,[9]; IP into mice at 1.2 μmole/per mouse,no immediate toxicity
CCCC[S+]([O-])c1sc2nc(-c3nccs3)cc(-c3cnc(C)n3C)c2c1N (stereo not shown) [formula (X)],concentration at which recombinant 15-PGDH is inhibited,[10],3 nM
same,concentration at which PGE2 production by cell lines is increased,[7],20 nM
same,chemical stability in aqueous solutions,[8],chemically stable
same,chemical stability when incubated with liver extracts,[11],chemically stable
same,chemical stability when incubated with liver extracts,[12],chemically stable
same,chemical stability when incubated with liver extracts,[13],chemically stable
same,immediate toxicity over 24 hours,[9]; IP into mice at 50 mg/kg body weight,no immediate toxicity
